For 25 compounds, EC50 results are on record in patent publication US20240124491A1, “METHODS AND COMPOUNDS FOR TREATING FRIEDREICH'S ATAXIA” (Design Therapeutics, Inc., priority 2021, published 2024).

The test deals with human FXN. The experiment in a line: EC50 assay: FXN mRNA expression by qRT-PCR in GM15850 cells after 48 hrs compound treatment. Format: cell-based. The conditions noted are these: Homo sapiens, 48 hrs incubation, hFXN expression normalized to hGAPDH (qRT-PCR), read-out: EC50 WT (nM, 48 hr). As for the experimental part:
Cell culture: Cells were cultured in RPMI1640 medium+15% FBS. Cells were maintained at a density between 2e5/mL and 1e6/mL. Cells were centrifuged, resuspended in fresh medium, counted and plated at 150,000 cells per well in 100 uL in a non-coated, flat bottom tissue culture plate.
Compound treatment: 10 mM stock solution of FA GeneTAC was diluted 1:10 in DMSO followed by a 1:100 dilution in growth medium. Working solution was then further diluted to 10× desired final concentration of 150 nM. Compound was then diluted at a 1:3 ratio into growth medium containing 0.01% DMSO. 5-point, 3-fold dose response curve was generated. 11 μL of 1OX compound was added to wells containing 100 μL cell suspension of GM15850. 11 μL growth medium containing 0.01% DMSO was added to all wells not treated with FA GeneTAC. Cells were allowed to incubate for 48 hrs prior to cell lysis using guanidine isothiocyanate solution.
RNA isolation: Total RNA was isolated and purified in 384-well column filter plates using chaotropic salt.
qRT-PCR: qRT-PCR reactions were assembled using AgPath-ID reagents (Thermo Fisher) using 6 uL mastermix and 4 μL RNA. qRT-PCR TaqMan primer probe sets against human FXN (Assay ID Hs01075496_m1) and human GAPDH (Assay ID Hs00266705_g1) were used to measure the intended targets. qRT-PCR was run on the ThermoFisher QuantStudio 6 PRO instrument using the manufacturer's recommended cycling conditions.
Data analysis: qPCR data was analyzed using Thermo Fisher Design and Analysis software. Data was exported to Excel and hFXN expression was normalized to hGAPDH expression
A<100 nM; B is 100 nM to 500 nM; C>500 nM.

Bounds are passed on as bounds.

For `Cc1sc2c(c1C)C(c1ccc(Cl)cc1)=N[C@@H](CC(=O)Nc1ccc(N3CCN(CCOCCOCCOCCOCCOCCOCCOCCNC(=O)CCNC(=O)c4nc(NC(=O)CCNC(=O)c5cc(NC(=O)c6nc(NC(=O)CCNC(=O)c7cc(NC(=O)c8nccn8C)cn7C)cn6C)cn5C)cn4C)CC3)cc1)c1nnc(C)n1-2` [Compound 2], the EC50 was less than 100 nM. `Cc1sc2c(c1C)C(c1ccc(Cl)cc1)=N[C@@H](CC(=O)Nc1ccc(N3CCN(CCOCCOCCOCCOCCOCCOCCNC(=O)CCNC(=O)c4nc(NC(=O)CCNC(=O)c5cc(NC(=O)c6nc(NC(=O)CCNC(=O)c7cc(NC(=O)c8nccn8C)cn7C)cn6C)cn5C)cn4C)CC3)cc1)c1nnc(C)n1-2` [Compound 3]: the EC50 is less than 100 nM. Consider `Cc1sc2c(c1C)C(c1ccc(Cl)cc1)=N[C@@H](CC(=O)Nc1ccc(N3CCN(CCOCCOCCOCCOCCOCCNC(=O)CCNC(=O)c4nc(NC(=O)CCNC(=O)c5cc(NC(=O)c6nc(NC(=O)CCNC(=O)c7cc(NC(=O)c8nccn8C)cn7C)cn6C)cn5C)cn4C)CC3)cc1)c1nnc(C)n1-2` [Compound 4], for which the EC50 is less than 100 nM. On to `Cc1sc2c(c1C)C(c1ccc(Cl)cc1)=N[C@@H](CC(=O)Nc1ccc(N3CCN(CC4CCN(CCOCCOCCOCCOCCOCCNC(=O)CCNC(=O)c5nc(NC(=O)CCNC(=O)c6cc(NC(=O)c7nc(NC(=O)CCNC(=O)c8cc(NC(=O)c9nccn9C)cn8C)cn7C)cn6C)cn5C)CC4)CC3)cc1)c1nnc(C)n1-2` [Compound 5], for which the EC50 was 100 to 500 nM. With `Cc1sc2c(c1C)C(c1ccc(Cl)cc1)=N[C@@H](CC(=O)Nc1ccc(N3CCN(CC4CCN(CCOCCOCCOCCOCCNC(=O)CCNC(=O)c5nc(NC(=O)CCNC(=O)c6cc(NC(=O)c7nc(NC(=O)CCNC(=O)c8cc(NC(=O)c9nccn9C)cn8C)cn7C)cn6C)cn5C)CC4)CC3)cc1)c1nnc(C)n1-2` [Compound 6] the figure was 100 to 500 nM. In the case of `Cc1sc2c(c1C)C(c1ccc(Cl)cc1)=N[C@@H](CC(=O)Nc1ccc(N3CCN(CC4CCN(CCOCCOCCOCCNC(=O)CCNC(=O)c5nc(NC(=O)CCNC(=O)c6cc(NC(=O)c7nc(NC(=O)CCNC(=O)c8cc(NC(=O)c9nccn9C)cn8C)cn7C)cn6C)cn5C)CC4)CC3)cc1)c1nnc(C)n1-2` [Compound 7], the EC50 fell in the range of 100 to 500 nM. With `Cc1sc2c(c1C)C(c1ccc(Cl)cc1)=N[C@@H](CC(=O)Nc1ccc(N3CCC(N4CCN(CCOCCOCCOCCOCCOCCOCCNC(=O)CCNC(=O)c5nc(NC(=O)CCNC(=O)c6cc(NC(=O)c7nc(NC(=O)CCNC(=O)c8cc(NC(=O)c9nccn9C)cn8C)cn7C)cn6C)cn5C)CC4)CC3)cc1)c1nnc(C)n1-2` [Compound 8] the figure was less than 100 nM; with `Cc1sc2c(c1C)C(c1ccc(Cl)cc1)=N[C@@H](CC(=O)Nc1ccc(N3CCC(N4CCN(CCOCCOCCOCCOCCOCCNC(=O)CCNC(=O)c5nc(NC(=O)CCNC(=O)c6cc(NC(=O)c7nc(NC(=O)CCNC(=O)c8cc(NC(=O)c9nccn9C)cn8C)cn7C)cn6C)cn5C)CC4)CC3)cc1)c1nnc(C)n1-2` [Compound 9], less than 100 nM; with `Cc1sc2c(c1C)C(c1ccc(Cl)cc1)=N[C@@H](CC(=O)Nc1ccc(N3CCC(N4CCN(CCOCCOCCOCCOCCNC(=O)CCNC(=O)c5nc(NC(=O)CCNC(=O)c6cc(NC(=O)c7nc(NC(=O)CCNC(=O)c8cc(NC(=O)c9nccn9C)cn8C)cn7C)cn6C)cn5C)CC4)CC3)cc1)c1nnc(C)n1-2` [Compound 10], less than 100 nM.

Regarding `Cc1sc2c(c1C)C(c1ccc(Cl)cc1)=N[C@@H](CC(=O)Nc1ccc(C#CC3CCN(CCOCCOCCOCCOCCOCCOCCNC(=O)CCNC(=O)c4nc(NC(=O)CCNC(=O)c5cc(NC(=O)c6nc(NC(=O)CCNC(=O)c7cc(NC(=O)c8nccn8C)cn7C)cn6C)cn5C)cn4C)CC3)cc1)c1nnc(C)n1-2` [Compound 11], the EC50 was less than 100 nM.

For `Cc1sc2c(c1C)C(c1ccc(Cl)cc1)=N[C@@H](CC(=O)Nc1ccc(C#CC3CCN(CCOCCOCCOCCOCCOCCNC(=O)CCNC(=O)c4nc(NC(=O)CCNC(=O)c5cc(NC(=O)c6nc(NC(=O)CCNC(=O)c7cc(NC(=O)c8nccn8C)cn7C)cn6C)cn5C)cn4C)CC3)cc1)c1nnc(C)n1-2` [Compound 12], the EC50 was less than 100 nM. Consider `Cc1sc2c(c1C)C(c1ccc(Cl)cc1)=N[C@@H](CC(=O)Nc1ccc(C#CC3CCN(CCOCCOCCOCCOCCNC(=O)CCNC(=O)c4nc(NC(=O)CCNC(=O)c5cc(NC(=O)c6nc(NC(=O)CCNC(=O)c7cc(NC(=O)c8nccn8C)cn7C)cn6C)cn5C)cn4C)CC3)cc1)c1nnc(C)n1-2` [Compound 13], for which the EC50 is less than 100 nM.

Regarding `Cc1sc2c(c1C)C(c1ccc(Cl)cc1)=N[C@@H](CC(=O)Nc1ccc(C#CC#CCNCCOCCOCCOCCOCCOCCOCCNC(=O)CCNC(=O)c3nc(NC(=O)CCNC(=O)c4cc(NC(=O)c5nc(NC(=O)CCNC(=O)c6cc(NC(=O)c7nccn7C)cn6C)cn5C)cn4C)cn3C)cc1)c1nnc(C)n1-2` [Compound 14], the EC50 lay in the range of 100 to 500 nM. Turning to `Cc1sc2c(c1C)C(c1ccc(Cl)cc1)=N[C@@H](CC(=O)Nc1ccc(C#CC#CCNCCOCCOCCOCCOCCOCCNC(=O)CCNC(=O)c3nc(NC(=O)CCNC(=O)c4cc(NC(=O)c5nc(NC(=O)CCNC(=O)c6cc(NC(=O)c7nccn7C)cn6C)cn5C)cn4C)cn3C)cc1)c1nnc(C)n1-2` [Compound 15], the EC50 is less than 100 nM.

With `Cc1sc2c(c1C)C(c1ccc(Cl)cc1)=N[C@@H](CC(=O)Nc1ccc(C#CC#CCNCCOCCOCCOCCOCCNC(=O)CCNC(=O)c3nc(NC(=O)CCNC(=O)c4cc(NC(=O)c5nc(NC(=O)CCNC(=O)c6cc(NC(=O)c7nccn7C)cn6C)cn5C)cn4C)cn3C)cc1)c1nnc(C)n1-2` [Compound 16], the EC50 is less than 100 nM.

Regarding `Cc1sc2c(c1C)C(c1ccc(Cl)cc1)=N[C@@H](CC(=O)N1CCN(CC3CCN(CCOCCOCCOCCOCCOCCN4CCC(CN5CCN(C(=O)CCNC(=O)c6nc(NC(=O)CCNC(=O)c7cc(NC(=O)c8nc(NC(=O)CCNC(=O)c9cc(NC(=O)c%10nccn%10C)cn9C)cn8C)cn7C)cn6C)CC5)CC4)CC3)CC1)c1nnc(C)n1-2` [Compound 18], the EC50 is more than 500 nM. As to `Cc1sc2c(c1C)C(c1ccc(Cl)cc1)=N[C@@H](CC(=O)N1CCN(CC3CCN(CCOCCOCCOCCOCCN4CCC(CN5CCN(C(=O)CCNC(=O)c6nc(NC(=O)CCNC(=O)c7cc(NC(=O)c8nc(NC(=O)CCNC(=O)c9cc(NC(=O)c%10nccn%10C)cn9C)cn8C)cn7C)cn6C)CC5)CC4)CC3)CC1)c1nnc(C)n1-2` [Compound 19], the EC50 is more than 500 nM. As for `Cc1sc2c(c1C)C(c1ccc(Cl)cc1)=N[C@@H](CC(=O)N1CCN(CC3CCN(CCOCCOCCOCCN4CCC(CN5CCN(C(=O)CCNC(=O)c6nc(NC(=O)CCNC(=O)c7cc(NC(=O)c8nc(NC(=O)CCNC(=O)c9cc(NC(=O)c%10nccn%10C)cn9C)cn8C)cn7C)cn6C)CC5)CC4)CC3)CC1)c1nnc(C)n1-2` [Compound 20], the EC50 was more than 500 nM. With `Cc1sc2c(c1C)C(c1ccc(Cl)cc1)=N[C@@H](CC(=O)N[C@H]1CC[C@H](N(C)CCOCCOCCOCCN3CCN(CCOCCOCCOCCNC(=O)CCNC(=O)c4nc(NC(=O)CCNC(=O)c5cc(NC(=O)c6nc(NC(=O)CCNC(=O)c7cc(NC(=O)c8nccn8C)cn7C)cn6C)cn5C)cn4C)CC3)CC1)c1nnc(C)n1-2` [Compound 21], the EC50 is more than 500 nM. With `Cc1sc2c(c1C)C(c1ccc(Cl)cc1)=N[C@@H](CC(=O)N[C@H]1CC[C@H](N(C)CCOCCOCCOCCOCCOCCOCCOCCOCCNC(=O)CCNC(=O)c3nc(NC(=O)CCNC(=O)c4cc(NC(=O)c5nc(NC(=O)CCNC(=O)c6cc(NC(=O)c7nccn7C)cn6C)cn5C)cn4C)cn3C)CC1)c1nnc(C)n1-2` [Compound 22] the figure was less than 100 nM; with `Cc1sc2c(c1C)C(c1ccc(Cl)cc1)=N[C@@H](CC(=O)NC1CCN(CCOCCOCCOCCN3CCN(CCOCCOCCOCCNC(=O)CCNC(=O)c4nc(NC(=O)CCNC(=O)c5cc(NC(=O)c6nc(NC(=O)CCNC(=O)c7cc(NC(=O)c8nccn8C)cn7C)cn6C)cn5C)cn4C)CC3)CC1)c1nnc(C)n1-2` [Compound 23], 100 to 500 nM. For the compound `COc1ccc2c(c1)C(c1ccc(Cl)cc1)=N[C@@H](CC(=O)NC1CCN(CCOCCOCCOCCN3CCN(CCOCCOCCOCCNC(=O)CCNC(=O)c4nc(NC(=O)CCNC(=O)c5cc(NC(=O)c6nc(NC(=O)CCNC(=O)c7cc(NC(=O)c8nccn8C)cn7C)cn6C)cn5C)cn4C)CC3)CC1)c1nnc(C)n1-2` [Compound 24], the EC50 fell in the range of 100 to 500 nM. On to `Cc1sc2c(c1C)C(c1ccc(Cl)cc1)=N[C@@H](CC(=O)N1CC3(CCN(CCOCCOCCOCCN4CCN(CCOCCOCCOCCNC(=O)CCNC(=O)c5nc(NC(=O)CCNC(=O)c6cc(NC(=O)c7nc(NC(=O)CCNC(=O)c8cc(NC(=O)c9nccn9C)cn8C)cn7C)cn6C)cn5C)CC4)CC3)C1)c1nnc(C)n1-2` [Compound 25], for which the EC50 was more than 500 nM. On to `COc1ccc2c(c1)C(c1ccc(Cl)cc1)=N[C@@H](CC(=O)N1CC3(CCN(CCOCCOCCOCCN4CCN(CCOCCOCCOCCNC(=O)CCNC(=O)c5nc(NC(=O)CCNC(=O)c6cc(NC(=O)c7nc(NC(=O)CCNC(=O)c8cc(NC(=O)c9nccn9C)cn8C)cn7C)cn6C)cn5C)CC4)CC3)C1)c1nnc(C)n1-2` [Compound 26], for which the EC50 is more than 500 nM.

As for `Cc1sc2c(c1C)C(c1ccc(Cl)cc1)=N[C@@H](CC(=O)N1CCN(CCOCCOCCOCCN3CCN(CCOCCOCCOCCNC(=O)CCNC(=O)c4nc(NC(=O)CCNC(=O)c5cc(NC(=O)c6nc(NC(=O)CCNC(=O)c7cc(NC(=O)c8nccn8C)cn7C)cn6C)cn5C)cn4C)CC3)CC1)c1nnc(C)n1-2` [Compound 27], the EC50 was more than 500 nM.
